Values after ≈ are worked out from the molar mass of the structure shown.
What was measured:
Format in all cases: functional
Details in all cases: time 18-20 hrs
[1] = system: Klebsiella pneumoniae; test: Antibacterial activity against Klebsiella pneumoniae ATCC 700603 measured after 18 to 20 hrs by broth microdilution method
[2] = system: Escherichia coli; test: Antibacterial activity against Escherichia coli ATCC 25922 measured after 18 to 20 hrs by broth microdilution method
[3] = system: Pseudomonas aeruginosa; test: Antibacterial activity against Pseudomonas aeruginosa 27853 measured after 18 to 20 hrs by broth microdilution method
[4] = system: Staphylococcus aureus; test: Antibacterial activity against Staphylococcus aureus ATCC 25923 measured after 18 to 20 hrs by broth microdilution method
[5] = system: Pseudomonas aeruginosa; test: Antibacterial activity against Pseudomonas aeruginosa PAO1 measured after 18 to 20 hrs by broth microdilution method
[6] = system: Pseudomonas aeruginosa; test: Antibacterial activity against Pseudomonas aeruginosa 1121 measured after 18 to 20 hrs by broth microdilution method
[7] = system: Pseudomonas aeruginosa; test: Antibacterial activity against Pseudomonas aeruginosa FB measured after 18 to 20 hrs by broth microdilution method
[8] = system: Pseudomonas aeruginosa; test: Antibacterial activity against Pseudomonas aeruginosa 27853 measured after 18 to 20 hrs in presence of FeIII cultured under CAA medium by broth microdilution method
[9] = system: Pseudomonas aeruginosa; test: Antibacterial activity against Pseudomonas aeruginosa PAO1 measured after 18 to 20 hrs in presence of FeIII cultured under CAA medium by broth microdilution method
[10] = system: Klebsiella pneumoniae; test: Antibacterial activity against Klebsiella pneumoniae ATCC 700603 measured after 18 to 20 hrs in presence of FeIII cultured under CAA medium by broth microdilution method
[11] = system: Escherichia coli; test: Antibacterial activity against Escherichia coli ATCC 25922 measured after 18 to 20 hrs in presence of FeIII cultured under CAA medium by broth microdilution method

| SMILES | MIC [1] [µM] | MIC [2] [µM] | MIC [3] [µM] | MIC [4] [µM] | MIC [5] [µM] | MIC [6] [µM] | MIC [7] [µM] | MIC [8] [µM] | MIC [9] [µM] | MIC [10] [µM] | MIC [11] [µM] |
| --- | --- | --- | --- | --- | --- | --- | --- | --- | --- | --- | --- |
| CC(C)=CCc1c(OCCCCCCC(=O)NCc2c(O)c(=O)cc(C)n2C)cc(/C=C/c2ccc(F)cc2)c(C(=O)O)c1O | > 250 | > 250 | > 250 | > 250 | 7.81 (≈ 4.85 µg/mL) | > 250 | > 250 | – | – | – | – |
| CC(C)=CCc1c(OCCCCCC(=O)NCc2cc(=O)c(O)cn2C)cc(/C=C/c2ccc(F)cc2)c(C(=O)O)c1O | > 250 | > 250 | 31.2 (≈ 18.5 µg/mL) | > 250 | 31.2 (≈ 18.5 µg/mL) | 31.2 (≈ 18.5 µg/mL) | > 250 | – | – | – | – |
| CC(C)=CCc1c(OCCCCCC(=O)NCc2cc(=O)c(O)cn2C)cc(CSc2ccc(F)cc2)c(C(=O)O)c1O | > 250 | > 250 | > 250 | > 250 | > 250 | > 250 | > 250 | – | – | – | – |
| CC(C)=CCc1c(OCc2cn(CCCCCCC(=O)NCc3cc(=O)c(O)cn3C)nn2)cc(/C=C/c2ccc(F)cc2)c(C(=O)O)c1O | > 250 | > 250 | > 250 | > 250 | 15.6 (≈ 10.7 µg/mL) | > 250 | > 250 | – | – | – | – |
| CC(C)=CCc1c(OCCCCCCCC(=O)NCc2cc(=O)c(O)cn2C)cc(CSc2ccc(F)cc2)c(C(=O)O)c1O | > 250 | > 250 | > 250 | > 250 | > 250 | > 250 | > 250 | – | – | – | – |
| CCCCCCCC(=O)NCc1cc(=O)c(O)cn1C | > 250 | > 250 | > 250 | > 250 | > 250 | > 250 | > 250 | – | – | – | – |
| CC(C)=CCc1c(OCCCCC(=O)NCc2cc(=O)c(O)cn2C)cc(/C=C/c2ccc(F)cc2)c(C(=O)O)c1O | > 250 | > 250 | 31.2 (≈ 18.1 µg/mL) | > 250 | 31.2 (≈ 18.1 µg/mL) | 31.2 (≈ 18.1 µg/mL) | 31.2 (≈ 18.1 µg/mL) | – | – | – | – |
| CC(C)=CCc1c(OCCCCCCCC(=O)NCc2c(O)c(=O)cc(C)n2C)cc(CSc2ccc(F)cc2)c(C(=O)O)c1O | > 250 | > 250 | > 250 | > 250 | > 250 | > 250 | > 250 | – | – | – | – |
| CCn1cc(C(=O)O)c(=O)c2cc(F)c(N3CCNCC3)cc21 [NORFLOXACIN] | 31.2 (≈ 9.98 µg/mL) | 0.49 (≈ 0.156 µg/mL) | 15.6 (≈ 4.98 µg/mL) | 7.8 (≈ 2.49 µg/mL) | 1.95 (≈ 0.623 µg/mL) | 3.9 (≈ 1.25 µg/mL) | 3.9 (≈ 1.25 µg/mL) | 15.6 | 1.95 | 31.2 | 0.49 |
| CC(C)=CCc1c(OCCCCCC(=O)NCc2c(O)c(=O)cc(C)n2C)cc(CSc2ccc(F)cc2)c(C(=O)O)c1O | > 250 | > 250 | > 250 | > 250 | > 250 | > 250 | > 250 | – | – | – | – |
| CC(C)=CCc1c(OCCCCCCC(=O)NCc2c(O)c(=O)cc(C)n2C)cc(CSc2ccc(F)cc2)c(C(=O)O)c1O | > 250 | > 250 | > 250 | > 250 | > 250 | > 250 | > 250 | – | – | – | – |
| CCCn1cc(O)c(=O)cc1CNC(=O)CCCCCCOc1cc(/C=C/c2ccc(F)cc2)c(C(=O)O)c(O)c1CC=C(C)C | > 250 | > 250 | 31.2 (≈ 19.8 µg/mL) | > 250 | 7.8 (≈ 4.95 µg/mL) | > 250 | > 250 | – | – | – | – |
| CC(C)=CCc1c(OCc2cn(CCn3cc(O)c(=O)cc3C)nn2)cc(/C=C/c2ccc(F)cc2)c(C(=O)O)c1O | > 250 | > 250 | 62.5 (≈ 35.9 µg/mL) | > 250 | 125 (≈ 71.8 µg/mL) | 250 (≈ 144 µg/mL) | 250 (≈ 144 µg/mL) | – | – | – | – |
| COc1cc(CSc2ccc(F)cc2)c(C(=O)O)c(O)c1CC=C(C)C | > 250 | > 250 | > 250 | 62.5 (≈ 23.5 µg/mL) | > 250 | > 250 | > 250 | – | – | – | – |
| CC1(C)S[C@@H]2[C@H](NC(=O)[C@H](N)c3ccccc3)C(=O)N2[C@H]1C(=O)O [AMPICILLIN] | > 250 | 1.95 (≈ 0.681 µg/mL) | > 250 | 0.24 (≈ 0.0839 µg/mL) | 125 (≈ 43.7 µg/mL) | > 250 | > 250 | > 250 | 62.5 | > 250 | 3.9 |
| CC(C)=CCc1c(OCc2cn(CCCn3cc(O)c(=O)cc3C)nn2)cc(/C=C/c2ccc(F)cc2)c(C(=O)O)c1O | > 250 | > 250 | 31.2 (≈ 18.4 µg/mL) | > 250 | 31.2 (≈ 18.4 µg/mL) | > 250 | > 250 | – | – | – | – |
| CC(C)=CCc1c(OCCCCCC(=O)NCc2c(O)c(=O)cc(C)n2C)cc(/C=C/c2ccc(F)cc2)c(C(=O)O)c1O | > 250 | > 250 | > 250 | > 250 | > 250 | > 250 | > 250 | – | – | – | – |
| CCn1cc(O)c(=O)cc1CNC(=O)CCCCCCOc1cc(/C=C/c2ccc(F)cc2)c(C(=O)O)c(O)c1CC=C(C)C | > 250 | > 250 | 31.2 (≈ 19.4 µg/mL) | > 250 | 7.8 (≈ 4.84 µg/mL) | > 250 | > 250 | – | – | – | – |
| CC(C)=CCc1c(OCc2cn(Cc3cc(=O)c(O)cn3C)nn2)cc(/C=C/c2ccc(F)cc2)c(C(=O)O)c1O | > 250 | > 250 | > 250 | > 250 | > 250 | > 250 | > 250 | – | – | – | – |
| CC(C)=CCc1c(OCCCCCCC(=O)NCc2cc(=O)c(O)cn2C)cc(CSc2ccc(F)cc2)c(C(=O)O)c1O | > 250 | > 250 | > 250 | > 250 | 7.8 (≈ 4.89 µg/mL) | > 250 | > 250 | – | – | – | – |
| CCCCCCC(=O)NCc1cc(=O)c(O)cn1C | > 250 | > 250 | > 250 | > 250 | > 250 | > 250 | > 250 | – | – | – | – |
| CC(C)=CCc1c(OCCCCCCCC(=O)NCc2c(O)c(=O)cc(C)n2C)cc(/C=C/c2ccc(F)cc2)c(C(=O)O)c1O | > 250 | > 250 | > 250 | > 250 | > 250 | > 250 | > 250 | – | – | – | – |
